Data on 28 molecules can be found in US10544106B2, “Certain chemical entities, compositions, and methods” (NeuPharma, Inc., priority 2016, dated 2020).

BTK, sequence (Q06187 whole entry): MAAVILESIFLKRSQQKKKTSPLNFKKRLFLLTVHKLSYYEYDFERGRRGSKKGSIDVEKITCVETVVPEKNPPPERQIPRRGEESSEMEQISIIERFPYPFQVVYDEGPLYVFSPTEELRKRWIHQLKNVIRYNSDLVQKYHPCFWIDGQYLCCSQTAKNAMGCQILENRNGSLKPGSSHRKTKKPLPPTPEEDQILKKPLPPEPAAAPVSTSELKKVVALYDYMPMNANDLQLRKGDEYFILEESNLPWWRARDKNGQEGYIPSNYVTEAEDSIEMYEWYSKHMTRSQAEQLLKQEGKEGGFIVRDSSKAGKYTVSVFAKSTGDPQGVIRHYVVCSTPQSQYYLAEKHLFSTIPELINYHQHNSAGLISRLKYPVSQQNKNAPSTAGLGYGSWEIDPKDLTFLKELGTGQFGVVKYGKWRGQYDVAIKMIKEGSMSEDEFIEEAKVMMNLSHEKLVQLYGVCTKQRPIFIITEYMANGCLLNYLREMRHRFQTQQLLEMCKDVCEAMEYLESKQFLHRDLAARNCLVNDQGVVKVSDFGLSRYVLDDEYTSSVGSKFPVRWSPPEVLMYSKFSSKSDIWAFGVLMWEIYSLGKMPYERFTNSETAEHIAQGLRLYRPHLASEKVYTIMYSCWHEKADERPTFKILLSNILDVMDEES

One assay deals with BTK (Homo sapiens (Human), UniProt Q06187). Briefly: Z'-LYTE kinase inhibition assay against BTK. It counts as biochemical. To be noted: compound at 100 nM; ATP concentration at Km. A digest of the protocol:
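Z′-LYTE FRET readout: 1.04-10.4 ng BTK with 2 μM Tyr 01 peptide, ATP at Km, in 50 mM HEPES pH 7.5, 10 mM MgCl2, 1 mM EGTA, 0.01% BRIJ-35, 1% DMSO. 60 min kinase reaction at room temperature, then 60 min development; IC50 from 10-point, 3-fold titrations.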
Broadly, the inhibition is the percentage by which the read-out fell short of the control. Read a high inhibition as a response far below the control. The molecule `C=CC(=O)Nc1cccc(-c2cc(-c3ccc(C(=O)Nc4ncccc4F)cc3)c(N)c3cncnc23)c1` [C211, 4-(8-(3-acrylamidophenyl)-5-aminoquinazolin-6-yl)-N-(3-fluoropyridin-2-yl)benzamide] registered an inhibition at 0.1 µM of less than 50%.
On the same count and under the same terms, under `C=CC(=O)N1CCC(c2nc(-c3ccc(Oc4ccccn4)c(OC)c3)n3c(N)nccc23)C1` (stereo not shown) [C212, 1-(3-(5-amino-3-(3-methoxy-4-(pyridin-2-yloxy)phenyl)imidazo[1,5-c]pyrimidin-1-yl)pyrrolidin-1-yl)prop-2-en-1-one] stands more than 50%; under `CC#CC(=O)N1CCC(c2nc(-c3ccc(Oc4ccccn4)c(OC)c3)n3c(N)nccc23)C1` (stereo not shown) [C213, 1-(3-(5-amino-3-(3-methoxy-4-(pyridin-2-yloxy)phenyl)imidazo[1,5-c]pyrimidin-1-yl)pyrrolidin-1-yl)but-2-yn-1-one], more than 50%; under `CC#CC(=O)N1CCC(c2nc(-c3ccc(Oc4cc(OC)ccn4)cc3)n3c(N)nccc23)C1` (stereo not shown) [C214, 1-(3-(5-amino-3-(4-((4-methoxypyridin-2-yl)oxy)phenyl)imidazo[1,5-c]pyrimidin-1-yl)pyrrolidin-1-yl)but-2-yn-1-one], more than 50%.
Still for that read-out and setting: the value for `C=CC(=O)N1CCC(c2cc(-c3ccc(C(=O)Nc4ncccc4F)cc3)c(N)c3cncnc23)C1` (stereo not shown) [C215, 4-(8-(1-acryloylpyrrolidin-3-yl)-5-amino-quinazolin-6-yl)-N-(3-fluoropyridin-2-yl)benzamide] was less than 50%; that for `C=CC(=O)N1CCC(c2nc(-c3ccc(Oc4cc(OC)ccn4)c(F)c3)n3c(N)nccc23)C1` (stereo not shown) [C216, 1-(3-(5-amino-3-(3-fluoro-4-((4-methoxy-pyridin-2-yl)oxy)phenyl)imidazo[1,5-c]pyrimidin-1-yl)pyrrolidin-1-yl)prop-2-en-1-one] was more than 50%; that for `C=CC(=O)Nc1cccc(-c2cc(-c3ccc(C(=O)Nc4ncccc4F)cc3Cl)c(N)c3cncnc23)c1` [C217, 4-(8-(3-acrylamidophenyl)-5-aminoquinazolin-6-yl)-3-chloro-N-(3-fluoropyridin-2-yl)benzamide] was more than 50%.
On the same count and under the same terms, under `C=CC(=O)N1CCC(c2nc(-c3ccc(Oc4ncccc4C(F)(F)F)cc3)n3c(N)nccc23)C1` (stereo not shown) [C218, 1-(3-(5-amino-3-(4-((3-(trifluoro-methyl)pyridin-2-yl)oxy)phenyl)imidazo[1,5-c]pyrimidin-1-yl)pyrrolidin-1-yl)prop-2-en-1-one] stands more than 50%.
Molecule `CC#CC(=O)N1CCC(c2nc(-c3ccc(Oc4ncccc4C(F)(F)F)cc3)n3c(N)nccc23)C1` (stereo not shown) [C219, 1-(3-(5-amino-3-(4-((3-(trifluoromethyl)pyridin-2-yl)oxy)phenyl)imidazo[1,5-c]pyrimidin-1-yl)pyrrolidin-1-yl)but-2-yn-1-one] had an inhibition at 0.1 µM of less than 50%.
Same read-out and setting: under `C=CC(=O)Nc1cccc(-c2nc(-c3ccc(Oc4ncccc4C(F)(F)F)cc3)n3c(N)nccc23)c1` [C220, N-(3-(5-amino-3-(4-((3-(trifluoromethyl)pyridin-2-yl)oxy)phenyl)imidazo[1,5-c]pyrimidin-1-yl)phenyl)acrylamide] stands more than 50%; under `C=CC(=O)N1CCC(c2nc(-c3ccc(Oc4cc(C(F)(F)F)ccn4)c(OC)c3)n3c(N)nccc23)C1` (stereo not shown) [C221, 1-(3-(5-amino-3-(3-methoxy-4-((4-(trifluoro-methyl)pyridin-2-yl)oxy)phenyl)imidazo[1,5-c]pyrimidin-1-yl)pyrrolidin-1-yl)prop-2-en-1-one], more than 50%; under `CC#CC(=O)N1CCC(c2nc(-c3ccc(Oc4cc(C(F)(F)F)ccn4)c(OC)c3)n3c(N)nccc23)C1` (stereo not shown) [C222, 1-(3-(5-amino-3-(3-methoxy-4-((4-(trifluoro-methyl)pyridin-2-yl)oxy)phenyl)imidazo[1,5-c]pyrimidin-1-yl)pyrrolidin-1-yl)but-2-yn-1-one], more than 50%.
The same measure, in the same setting: under `C=CC(=O)N1CCC(c2nc(-c3ccc(Oc4ncccc4C(F)(F)F)c(F)c3)n3c(N)nccc23)C1` (stereo not shown) [C223, 1-(3-(5-amino-3-(3-fluoro-4-((3-(trifluoro-methyl)pyridin-2-yl)oxy)phenyl)imidazo[1,5-c]pyrimidin-1-yl)pyrrolidin-1-yl)prop-2-en-1-one] stands more than 50%; under `C=CC(=O)N1CCC(c2nc(-c3ccc(Oc4ncccc4F)cc3)n3c(N)nccc23)C1` (stereo not shown) [C226, 1-(3-(5-amino-3-(4-((3-fluoropyridin-2-yl)oxy)phenyl)imidazo[1,5-c]pyrimidin-1-yl)pyrrolidin-1-yl)prop-2-en-1-one], more than 50%; under `C=CC(=O)N1CCC(c2nc(-c3ccc(Oc4ncccc4C#N)cc3)n3c(N)nccc23)C1` (stereo not shown) [C227, 2-(4-(1-(1-acryloylpyrrolidin-3-yl)-5-amino-imidazo[1,5-c]pyrimidin-3-yl)phenoxy)nicotinonitrile], more than 50%.

Still in this assay, the particulars now being: series of concentrations; GraphPad Prism 5.
By IC50 is commonly meant the point on the concentration scale where inhibition reaches its midpoint. Read a low IC50 as greater potency in that assay. With `C=CC(=O)N1CCC(c2nc(-c3ccc(Oc4ccccn4)c(OC)c3)n3c(N)nccc23)C1` (stereo not shown) [C212, 1-(3-(5-amino-3-(3-methoxy-4-(pyridin-2-yloxy)phenyl)imidazo[1,5-c]pyrimidin-1-yl)pyrrolidin-1-yl)prop-2-en-1-one], the IC50 is less than 100 nM.
Same read-out and setting: the value for `C=CC(=O)N1CCC(c2nc(-c3ccc(Oc4cc(OC)ccn4)c(F)c3)n3c(N)nccc23)C1` (stereo not shown) [C216, 1-(3-(5-amino-3-(3-fluoro-4-((4-methoxy-pyridin-2-yl)oxy)phenyl)imidazo[1,5-c]pyrimidin-1-yl)pyrrolidin-1-yl)prop-2-en-1-one] was less than 100 nM.
Same read-out and setting: under `C=CC(=O)N1CCC(c2nc(-c3ccc(Oc4ncccc4C(F)(F)F)cc3)n3c(N)nccc23)C1` (stereo not shown) [C218, 1-(3-(5-amino-3-(4-((3-(trifluoro-methyl)pyridin-2-yl)oxy)phenyl)imidazo[1,5-c]pyrimidin-1-yl)pyrrolidin-1-yl)prop-2-en-1-one] stands less than 100 nM.
Molecule `CC#CC(=O)N1CCC(c2nc(-c3ccc(Oc4ncccc4F)cc3)n3c(N)nccc23)C1` (stereo not shown) [C228, 1-(3-(5-amino-3-(4-((3-fluoropyridin-2-yl)oxy)phenyl)imidazo[1,5-c]pyrimidin-1-yl)pyrrolidin-1-yl)but-2-yn-1-one] showed an IC50 of less than 100 nM.
Same read-out and setting: under `CC#CC(=O)N1CCC(c2nc(-c3ccc(Oc4ncccc4C#N)cc3)n3c(N)nccc23)C1` (stereo not shown) [C229, 2-(4-(5-amino-1-(1-(but-2-ynoyl)pyrrolidin-3-yl)imidazo[1,5-c]pyrimidin-3-yl)phenoxy)nicotinonitrile] stands less than 100 nM; under `CC#CC(=O)N1CCC(c2nc(-c3ccc(C(=O)Nc4ccccn4)c(F)c3)n3c(N)nccc23)C1` (stereo not shown) [C231, 4-(5-amino-1-(1-(but-2-ynoyl)pyrrolidin-3-yl)imidazo[1,5-c]pyrimidin-3-yl)-2-fluoro-N-(pyridin-2-yl)benzamide], less than 100 nM.
On the same count and under the same terms, under `C=CC(=O)N1CCCC(c2nc(-c3ccc(Oc4ncccc4F)c(OC)c3)n3c(N)nccc23)C1` (stereo not shown) [C232, 1-(3-(5-amino-3-(4-((3-fluoropyridin-2-yl)oxy)-3-methoxyphenyl)imidazo[1,5-c]pyrimidin-1-yl)piperidin-1-yl)prop-2-en-1-one] stands less than 100 nM; under `C=CC(=O)N1CCC(c2nc(-c3ccc(Oc4ncccc4F)c(OC)c3)n3c(N)nccc23)C1` (stereo not shown) [C233, 1-(3-(5-amino-3-(4-((3-fluoropyridin-2-yl)oxy)-3-methoxyphenyl)imidazo[1,5-c]pyrimidin-1-yl)pyrrolidin-1-yl)prop-2-en-1-one], less than 100 nM; under `C=CC(=O)N1CCCC(c2nc(-c3ccc(Oc4ncccc4C#N)c(F)c3)n3c(N)nccc23)C1` (stereo not shown) [C234, 2-(4-(1-(1-acryloylpiperidin-3-yl)-5-amino-imidazo[1,5-c]pyrimidin-3-yl)-2-fluorophenoxy)nicotinonitrile], less than 100 nM.
On the same count and under the same terms, the value for `CC#CC(=O)N1CCC(c2nc(-c3ccc(C(=O)Nc4cc(C5CC5)ccn4)cc3)n3c(N)ncnc23)C1` (stereo not shown) [C237, 4-(4-amino-8-(1-(but-2-ynoyl)pyrrolidin-3-yl)imidazo[1,5-a][1,3,5]triazin-6-yl)-N-(4-cyclopropylpyridin-2-yl)benzamide] was less than 100 nM; that for `CC#CC(=O)N1CCC(c2nc(-c3ccc(C(=O)Nc4cc(C5CC5)ccn4)cc3)n3c(N)nccc23)C1` (stereo not shown) [C239, 4-(5-amino-1-(1-(but-2-ynoyl)pyrrolidin-3-yl)imidazo[1,5-c]pyrimidin-3-yl)-N-(4-cyclopropylpyridin-2-yl)benzamide] was less than 100 nM; that for `CC#CC(=O)N1CCC(c2nc(-c3ccc(C(=O)Nc4cc(OC)ccn4)cc3)n3c(N)nccc23)C1` (stereo not shown) [C241, 4-(5-amino-1-(1-(but-2-ynoyl)pyrrolidin-3-yl)imidazo[1,5-c]pyrimidin-3-yl)-N-(4-methoxypyridin-2-yl)benzamide] was less than 100 nM.
Turning to `C=CC(=O)N1CCC(c2nc(-c3ccc(C(=O)Nc4cc(C(F)(F)F)ccn4)cc3)n3c(N)nccc23)C1` (stereo not shown) [C242, 4-(1-(1-acryloylpyrrolidin-3-yl)-5-amino-imidazo[1,5-c]pyrimidin-3-yl)-N-(4-(trifluoromethyl)pyridin-2-yl)benzamide], the IC50 was less than 100 nM.
Same read-out and setting: the value for `C=CC(=O)N1CCCC(c2nc(-c3ccc(Oc4ccccn4)cc3)n3c(N)nccc23)C1` (stereo not shown) [C243, 1-(3-(5-amino-3-(4-(pyridin-2-yloxy)phenyl)imidazo[1,5-c]pyrimidin-1-yl)piperidin-1-yl)prop-2-en-1-one] was less than 100 nM; that for `CC#CC(=O)N1CCCC(c2nc(-c3ccc(Oc4ccccn4)cc3)n3c(N)nccc23)C1` (stereo not shown) [C244, 1-(3-(5-amino-3-(4-(pyridin-2-yloxy)phenyl)imidazo[1,5-c]pyrimidin-1-yl)piperidin-1-yl)but-2-yn-1-one] was less than 100 nM.
Same read-out and setting: the value for `CC#CC(=O)N1CCC(c2nc(-c3ccc(C(=O)Nc4cc(C5CC5)ccn4)c(F)c3)n3c(N)nccc23)C1` (stereo not shown) [C247, 4-(5-amino-1-(1-(but-2-ynoyl)pyrrolidin-3-yl)imidazo[1,5-c]pyrimidin-3-yl)-N-(4-cyclopropylpyridin-2-yl)-2-fluorobenzamide] was less than 100 nM.
